# Reference: ChEMBL document CHEMBL3507680, “University of Dundee, Gates Library screen for HepG2 cell viability”
# Assay: Human HepG2 cell viability assay in 384 well format
# Format: toxicity, cell-based
# Design: dose 125 nL, time 70.5 hour; concentration not given beside the values
# Settings: HepG2 cells, read-out: Inhibition
row,Compound,cytotoxicity at 70.5 h [%]
1,Cc1oncc1C(=O)NCc1ccnc(OCC(F)(F)F)c1,11
2,COCCC1(CNC(=O)NCC2CCCN(C)C2)CCCC1 (centres undefined),-1.2
3,Cc1ccc(NC(=O)N(CCO)Cc2ccsc2)cc1,-0.584
4,CC1CCCCN1Cc1nc(Cc2ccccc2)no1 (centres undefined),-10.4
5,O=C(c1csc(-c2ncccn2)n1)N1CCN(C2CCCC2)CC1,-5.27
6,Cc1n[nH]c(C2CN(C(=O)c3csnn3)CCO2)n1 (centres undefined),-11.9
7,Cc1ccc(-n2cccn2)cc1S(=O)(=O)N1C[C@H](C2CC2)[C@@H](N)C1,11.6
8,Cn1c(C2CC2)nc2c1CCN(CCOc1ccc(C#N)cc1)C2,-9.07
9,CCCn1ccnc1CN1C[C@@H](CN2CCCCC2)[C@@H](CO)C1,-2.74
10,Cc1cccc(C(=O)N2CCN(CCC(C)C)CC2)n1,-11.4
11,NS(=O)(=O)CCN(CCc1cccc(F)c1)C1CCCC1,-0.787
12,CC(C)(C)OC(=O)N1CCCN1C(=O)c1cccc2cc[nH]c12,3.87
13,COC(=O)c1ccc(N2CCN(C(=O)c3cnc(C)cn3)C(C)C2)cc1 (centres undefined),-11
14,Cn1nccc1C(=O)Nc1cc(C(F)(F)F)c[nH]c1=O,-6.13
15,COc1cccc(CN(C)S(=O)(=O)N2CCOCC2)c1,2.16
16,Cc1csc(Nc2nccnc2C2CCCN2C(=O)C(C)C)n1 (centres undefined),-18.2
17,CC1(Cc2ccc(Cl)cc2)Cc2cc(CCC(=O)O)ccc2O1 (centres undefined),-6.16
18,Cc1cnn(CC2CCCN2C(=O)CCc2c(C)nn(C)c2C)c1 (centres undefined),-18.5
19,CC(CN1CCOCC1)NC(=O)Nc1cccnc1-n1cccn1 (centres undefined),-14
20,Cc1nc2n(n1)CC(NCc1cnn(-c3ccccc3)n1)CC2 (centres undefined),-9.59
21,Cc1cc(CSCc2cc(C)on2)on1,12.2
22,CCc1ccccc1NC(=O)C1CN(C(C)=O)C1,11.2
23,CC1CCC(N2Cc3nc(N)ncc3C2=O)CC1 (centres undefined),-12.4

row,Compound,cytotoxicity at 70.5 h [%]
1,O=C(O)c1ccccc1-c1c(-c2ccccc2)ncn1C[C@H]1CCCN1,-3.04
2,Cc1nc(C(=O)N2C[C@@H]3COC[C@]3(COCc3cccnc3)C2)cs1,-6.56
3,CCOCC(=O)N1CC[C@@H]2O[C@@H](C)C[C@H]2C1,-11.3
4,Cc1nc(Nc2ncccn2)cc(C2CCCN2Cc2ncc[nH]2)n1 (centres undefined),-2.88
5,Cc1c(CN2CCCCC2)c(O)n(CCCO)c(=O)c1C#N,-4.27
6,CC(CC#N)N1CCN(C(=O)OC(C)(C)C)CC1 (centres undefined),13.3
7,O=C(NCC1CCN(CCc2ccccc2)C1)NCC1(O)CCC1 (centres undefined),-3.77
8,O=C(c1ccc(=O)[nH]n1)N1CC(c2nc(Cc3ccccc3)no2)C1,-0.421
9,CO[C@H]1C[C@@H](O)C12CCN(C(=O)CCSCc1ccc(F)cc1)CC2,-18.7
10,CC(C)c1sc(Cl)nc1C(=O)N1CCN(c2ccccn2)CC1,29.7
11,O=S(=O)(CCN1CCc2c(ncn2C2CC2)C1)c1ccccc1,16.5
12,CC(C)Cn1ncc2cc(C(=O)N(C)Cc3cccc(O)c3)cnc21,11.7
13,CC(C)C(=O)N1CCN(CCOc2cccc(C#N)c2)CC1,-5.29
14,Cn1ccc(C(=O)N2CCCC2c2ccc3c(c2)OCCO3)cc1=O (centres undefined),-2.74
15,O=C(Nc1nncs1)NC1CCCc2c1cnn2CCO (centres undefined),4.56
16,NC(=O)CN1CCCN(C(=O)c2ccc(SC(F)F)cc2)CC1,-6.46
17,COc1ccc(Br)c(C(=O)NCC2CCN(C(=O)c3ccoc3)CC2)c1,0.959
18,NC(=O)NCC(=O)N1C[C@H]2CC[C@@H]1CN(Cc1cscn1)C2,9.8
19,O=C(Nc1cccnc1)[C@H]1C[C@@H]2CN(S(=O)(=O)C3CC3)C[C@H]1O2,-4.16
20,CN1CCCC(Cc2ccnc3ccncc23)CC1 (centres undefined),34.2
21,Cc1ccccc1C1CCCN1C(=O)CN1CC2(CCNCC2)OC1=O (centres undefined),-4.74
22,CCNC(c1ccc(F)cc1)c1cccnc1 (centres undefined),-19.7
23,Cc1cnn(CC2CN(Cc3nc(-c4ccsc4)no3)CCO2)c1 (centres undefined),-14.2

row,Compound,cytotoxicity at 70.5 h [%]
1,Cc1noc(C2CCCCN2C(=O)NCc2ccco2)n1 (centres undefined),-19.9
2,CCc1cc(=O)n(CC(=O)NCC2CCCO2)c(-c2cccc(F)c2)n1 (centres undefined),2.39
3,Cc1cnn(CC(C)NCc2csc(-c3cccs3)n2)c1 (centres undefined),-22.3
4,COc1cc(NC(=O)NC(C2CC2)C2CC2)ccc1N1CCOC1=O,-18
5,Cc1ccccc1C(=O)NC[C@@H]1CCN(C(=O)c2cscn2)C[C@H]1O,18.9
6,COCc1nnc(C(=O)N(C)Cc2cnc3ccccn23)o1,-3.55
7,CCn1c(C2CCN(C(=O)COCC(F)(F)C(F)F)CC2)n[nH]c1=O,-6.79
8,CCS(=O)(=O)N(C)CC(=O)Nc1ccc(Br)cn1,4.52
9,O=C(NCC1(O)CCC1)c1c(O)cc(F)cc1F,13.9
10,O=C(N[C@@H]1CN(c2ncccn2)C[C@@H]2CCCO[C@@H]21)c1ccncc1,-3.78
11,COCC1CN(C(=O)c2cccn2C)Cc2nccn2C1 (centres undefined),-18.2
12,Cn1ccc2ccc(C(=O)N3CCN(C(=O)OC(C)(C)C)CC3)cc21,3.39
13,O=C1CC(c2ccncc2)C2(CCN(C(=O)c3ccnnc3)CC2)N1 (centres undefined),-8.48
14,O=C(NC[C@H]1OC[C@@H](NCc2ccccc2F)[C@@H]1O)Nc1ccccc1,-3.35
15,CC(C)N1CCCc2sc(C(=O)NC3CC3)nc21,8.47
16,COc1ccc(OC2CCN(C(=O)c3ccc(C)[nH]c3=O)CC2)cc1,-5.37
17,CC(NCc1ccccc1Cl)c1ccc(OCC(=O)NC2CC2)cc1 (centres undefined),0.704
18,O=C(NCc1cn2c(n1)CN(Cc1ccccn1)CC2)C1CCC1,-10
19,Cc1ccc(=O)n(CC2(O)CCN(Cc3cnc(C)nc3)CC2)n1,-10.4
20,CN(C)c1ccc(C(=O)N2CCCC2c2noc(C3CC3)n2)nn1 (centres undefined),13.8
21,Cc1cc(C)c(CNC(=O)NCc2nnc3n2CCCCC3)c(=O)[nH]1,-5.09
22,CC(C)N1CCc2ncn(C)c2C1C(=O)N1CCOCC1 (centres undefined),5.22
23,O=S(=O)(Cc1ccccc1F)NCCN1CCOCC1,-2.45

row,Compound,cytotoxicity at 70.5 h [%]
1,CN1CCCN(C(=O)NCCOc2ccc3c(c2)OCO3)CC1,-2.86
2,Cn1cnc2c1CCN(CCOc1ccc3c(c1)CCC(=O)N3)C2,-12.1
3,CC(C)(C)c1cc(NC(=O)CN2CCCC2Cn2cccn2)on1 (centres undefined),1.91
4,COc1cc(CNCC2CNc3ccnn3C2)ccn1 (centres undefined),-3.41
5,CCCc1nc(CN2CCc3c(ncn3C3CC3)C2)cs1,-5.23
6,CC(C)Cc1noc(CC2CCS(=O)(=O)C2)n1 (centres undefined),-6.88
7,CC(C)(C)N1CC(C(=O)NCc2nc(C3CCCCC3)no2)CC1=O (centres undefined),-4.38
8,O=C(Nc1ccc(N2CCCCC2)cn1)C1CCCN1C(=O)C1CC1 (centres undefined),-4.38
9,CC(C(=O)N1CCN(c2ccccc2)CC1)n1cc(Br)cn1 (centres undefined),-2.65
10,CC(=O)N1C[C@@H](F)[C@@H](OCc2nc3ccccc3o2)C1,-3.68
11,COCc1nc(CN2CC(=O)N(C)c3ccccc3C2=O)no1,-5.63
12,CCN1C(=O)CC(c2cnn(C)c2)C12CCN(C(=O)C1CC=CC1)CC2 (centres undefined),0.244
13,CSCCC(=O)N1CC[C@@H](N2CCN(c3ccccc3F)CC2)[C@H](O)C1,33.8
14,O=C(c1ccco1)N1CCC2(CCCN(c3ncccn3)C2)C1 (centres undefined),11
15,COc1ccccc1CNC(=O)c1ccccc1-n1cnc(CN)c1,-9.04
16,CCN(CCCNC(=O)Nc1ccccc1C(C)C)S(C)(=O)=O,-4.67
17,O=C(CCN1CCCCO1)N1CC[C@H](O)[C@@H](O)C1,11.6
18,O=C(CSC1CCCC1)N1CCN(C(=O)C2CC2c2cccs2)CC1 (centres undefined),33.2
19,CC(=O)N1CCN(C(=O)NCCCN(C)S(C)(=O)=O)CC1,-5.97
20,CC(Sc1nnc(C2CC2)n1CC(N)=O)c1ccc(F)c(Cl)c1 (centres undefined),-6.61
21,O=C(C1SCCc2sccc21)N1CC(O)C1 (centres undefined),-5.69
22,Cc1ccccc1C(CC(=O)NCc1nnc(N)s1)c1ccccc1 (centres undefined),-3.82
23,COc1ccc(S(=O)(=O)NCC(c2cccn2C)N(C)C)c(C)c1 (centres undefined),-12.6

row,Compound,cytotoxicity at 70.5 h [%]
1,Cc1ccc(Nc2cc(N3CCN(S(C)(=O)=O)CC3)nc(C)n2)cc1,-17.3
2,CN1C(=O)CCC12CCCN(C(=O)c1ccoc1)C2 (centres undefined),-1.96
3,CC(NC(=O)NCc1ccc(Cl)cc1)c1ccccn1 (centres undefined),-10.7
4,CC(C)(C)c1cn2nc(N3CCCCC3Cn3cncn3)sc2n1 (centres undefined),4.02
5,COc1ccncc1NC(=O)C1(c2ccc(F)cc2)CCC1,-6.62
6,CCCc1nnc(N2CCC(C3CCN(C)CC3)CC2)o1,9.11
7,CS(=O)(=O)N1CCC(Oc2ccc(C(=O)NC3CCCC3)cc2Cl)CC1,-7.15
8,Cc1nccn1CCC(=O)N1CCCN(c2ccccc2)CC1,-6.92
9,CCOCC(=O)N1CCOCC2(CCN(c3ncccn3)C2)C1 (centres undefined),2.44
10,CC(=O)N1C[C@H](NS(=O)(=O)Cc2cccc(Cl)c2)[C@@H](C(C)C)C1,-6.96
11,CCC(C)NC(=O)Nc1cccc(OCC#N)c1 (centres undefined),-12.4
12,CC(C)N(CC(N)=O)Cc1csc(-c2ncccn2)n1,-2.81
13,OC1(CN2CCCCC2)CCN(c2ccc(C(F)(F)F)cn2)C1 (centres undefined),-4.17
14,CO[C@H]1CN(C(=O)c2ccc(-c3cc[nH]n3)cc2)CC[C@H]1N,-8.35
15,O=C(c1ccoc1)N1CCCN(C(=O)c2ccc(C3CCCN3)s2)CC1 (centres undefined),-7.17
16,CCOc1ccc2[nH]c(=O)c(CN3CCN(S(N)(=O)=O)CC3)cc2c1,-11.9
17,COCCN(C/C=C/c1ccccc1)Cc1ncc[nH]1,-5.41
18,Cc1nnc(CN(C)C2CCN(CCc3cccs3)C2)n1C (centres undefined),15.2
19,Cn1c2ccc(F)cc2c2ncn(CCCN(CCO)CCO)c(=O)c21,18.9
20,CC(C)c1ccc(CN2CCN(C(=O)c3cc(C4CC4)[nH]n3)CC2)cc1,44.7
21,Cc1ccc(-c2nnc(CN3CCCC(O)(CO)CC3)o2)n1C (centres undefined),14.8
22,COCC(=O)NC(C)Cc1ccc(Br)cc1 (centres undefined),2.28
